Assay results: US12035717B1, “2-OXO-2-({2-[(phenylcarbamoyl)oxy]ethyl} amino)ethyl phenylcarbamate as an eco-friendly insecticidal agent against spodoptera littoralis (boisd.)” (priority 2024, dated 2024)
Values after ≈ are worked out from the molar mass of the structure shown.

System: Spodoptera littoralis larvae (laboratory strain of cotton leafworm)
Assay: Insecticidal leaf dip bioassay on S. littoralis larvae
Settings: for LC50: after 72 hours of treatment, castor leaf dip; for Toxicity index % / Toxicity ratio: 72 hours; for Toxicity index %: fenoxycarb = 100; for Toxicity ratio: fenoxycarb's LC50/compound's LC50 * 100
[1] = Spodoptera littoralis, in Gossypium hirsutum, foliar, 72 h, 4th instar larvae
[2] = Spodoptera littoralis, in Gossypium hirsutum, foliar, 72 h, 2nd instar larvae

Method: Five concentrations (200, 100, 50, 25, 12.5 ppm) were designed for this synthetic compound and the reference fenoxycarb's compound as the dynamic ingredients based on ppm via diluting the commercial formulation.
In this experiment, the synthetic compound was tested for its insecticidal bioactivity using the industry-standard leaf dip bioassay techniques. […] Until usage, the stocks were kept in a refrigerator. The target substance test results were noted & the concentrations needed to destroy 50% (LC50) of S. littoralis larvae were calculated. The target compound was employed in five different concentrations, & 0.1% Tween 80 was employed as a surfactant. Castor bean leaf discs (nine centimeters in diameter) were dipped in the concentration under test for ten seconds, then fed to 2th & 4th larvae, which were roughly the same size and housed in glass jars (five pound). Each action carried out 3 times with ten larvae each. The mortality equalized via Abbott's formula. Calculations of mortality setback line were measurably rummage via probity analysis. Harmfulness index was strongminded via sun equations. The mortality results of larval insect were estimated through employing probit analysis through a statistics (LDP-line) equation which estimate the LC50 values with 95% fiducially limits of lower, upper confidence limit and slope.

| Structure (SMILES) | LC50 (2nd instar larvae) | LC50 [1] | Toxicity index % (2nd instar larvae) | Toxicity ratio (4th instar larvae) | LC50 (4th instar larvae) | LC50 [2] | Activity against Spodoptera littoralis (in words) (summary of Table 1 data) |
| --- | --- | --- | --- | --- | --- | --- | --- |
| O=C(COC(=O)Nc1ccccc1)NCCOC(=O)Nc1ccccc1 [2-oxo-2-({2-[(phenylcarbamoyl)oxy]ethyl}amino)ethyl phenylca] [2-oxo-2-({2-[(phenylcarbamoyl)oxy]ethyl}amino)ethyl phenylcarbamate] | about 14.80 mg/L | – | – | – | – | – | – |
| O=C(COC(=O)Nc1ccccc1)NCCOC(=O)Nc1ccccc1 [2-oxo-2-({2-[(phenylcarbamoyl)oxy]ethyl}amino)ethyl phenylcarbamate] | – | ~81 µg/mL (≈ 227 µM) | – | – | – | – | – |
| O=C(COC(=O)Nc1ccccc1)NCCOC(=O)Nc1ccccc1 [Compound 2, 2-oxo-2-({2-[(phenylcarbamoyl)oxy]ethyl}amino)ethyl phenylcarbamate] | – | – | 40.13% | 73.98 | 80.98 µg/mL (≈ 227 µM) | 14.8 µg/mL (≈ 41.4 µM) | active against Spodoptera littoralis |
| CCOC(=O)NCCOc1ccc(Oc2ccccc2)cc1 [Fenoxycarb, reference compound] | – | 59.9 µg/mL (≈ 199 µM) | 100% | 100 | – | 5.94 µg/mL (≈ 19.7 µM) | – |
